# Data as given in PubChem BioAssay AID2060491 (Molecular Pharmacology Branch, DTP, NCI, 2025).
# System: 857933-349-R-J2-PDC complex spheroids, viability
# Assay: Anticancer human tumor 857933-349-R-J2-PDC patient-derived colon adenocarcinoma cell line growth inhibition [GQUAD]
# Conditions: for IC50: curve of first compound; for viability, T/C: stronger effect = lower value
# Text: DNA G-quadruplex Stabilizer Agents in Combinations in Complex Spheroids
# A high-throughput screen of multi-cell type tumor spheroids was designed to identify active combinations of DNA G-quadruplex stabilizer agents and targeted small molecules. Complex spheroids include a stromal component modeled by human endothelial cells (HUVEC) and fibroblasts modeled by human mesenchymal stem cells (MSCs). The concentration ranges selected for each drug and investigational agent were based upon clinically achievable concentrations if the clinical Cmax of the agent was known.
# Compounds. The drugs and investigational agents: pidnarulex (CX-5461; NSC782164), APTO-253 (NSC789042), BRACO-19 (NSC847499), peposertib (NSC802822), ceralasertib (NSC780249), elimusertib (NSC800525), camonsertib (NSC841442), AZD-1390 (NSC803789), olaparib (NSC753686), talazoparib (NSC767125), ART-558 (NSC835418), sotorasib (NSC818433), MRTX-1133 (NSC836407), SN-38 (NSC673596), topotecan (NSC609699), etoposide (NSC141540), doxorubicin (NSC123127), gemcitabine (NSC613327), 5-fluorouracil (NSC19893), paclitaxel (NSC125973), vemurafenib (NSC761431), panobinostat (NSC761190), R-306465 (JNJ-16241199; NSC773264), adavosertib (NSC754352), TP-3654 (NSC805149), carboplatin (NSC241240), KSQ-4279 (NSC840948), and staurosporine (NSC755774) were obtained from the National Cancer Institute (NCI) Developmental Therapeutics Program Chemical Repository (34). The FDA-approved anticancer drug set is available from the NCI Developmental Therapeutics Program. […] The stock solutions were prepared in dimethyl sulfoxide (DMSO, Sigma-Aldrich, St. Louis, MO, cat. D2650) at 800-fold the tested concentration and stored at -70 degrees C prior to their use. All drugs and investigational agents were tested over a range starting from a high concentration at or near the clinical Cmax and decreasing in half-log increments. If the clinical Cmax for an agent had not been determined, the highest concentration tested was 10 microM.
# 2.3 Cell Culture. All cells were maintained in an incubator at 37 degrees C and 5% CO2 with 95% humidity. The PDC lines were cultured according to standard operating procedures established by the NCI PDMR. All PDCs were thawed and cultured in Matrigel-coated flasks prepared with a working solution of 1X Ham's F-12 nutrient mix, without supplementation (Invitrogen, cat. 11765054), 100 U/mL penicillin-streptomycin (Invitrogen, cat. 15140122), and 2.5% Matrigel (Corning Inc., cat. 354248) for the first three passages. The 857933-349-R-J2-PDC line was cultured in 6C/Colon 1B media, which includes advanced DMEM/F-12 (Thermo Fisher Scientific, cat. 12634028), 10 mM HEPES (Thermo Fisher Scientific, cat. 15630080), 1X GlutaMAX supplement (Thermo Fisher Scientific, cat. 35050061), 0.1 mg/mL primocin (InvivoGen, cat. ant-pm-2), 10% defined fetal bovine serum, heat inactivated (HyClone Laboratories Inc., cat. SH30070.03HI), 50% L-WRN conditioned media (ATCC, cat. CRL-3276), 1.25 mM N-Acetyl-L-cysteine (Sigma-Aldrich, cat. A9165), 10 mM nicotinamide (Sigma-Aldrich, cat. N0636), 1X B-27 supplement (Thermo Fisher Scientific, cat. 17504044), 1X N-2 supplement (Thermo Fisher Scientific, cat. 17502048), 10 microM Y-27632 dihydrochloride (Tocris Bioscience, cat. 1254), and 50 ng/mL human EGF recombinant protein (Thermo Fisher Scientific, cat. PHG0311). The 485176-168-R4-J1-PDC line was cultured in Panc media, which includes all 6C/Colon 1B media components plus 100 ng/mL human FGF-10 (Thermo Fisher Scientific, cat. 100-26), 500 nM SB-431542 (Selleckchem, cat. S1067), and gastrin (Tocris, cat. 3006).
# […]
# [1] = second compound 0.0316 µM, first compound 0.0316 µM
# [2] = second compound 0.0316 µM, first compound 0.1 µM
# [3] = second compound 0.0316 µM, first compound 0.316 µM
# [4] = second compound 0.0316 µM, first compound 1 µM
# [5] = second compound 0.0316 µM, first compound 3.16 µM
# [6] = second compound 0.0316 µM, first compound 10 µM
# [7] = second compound 0.1 µM, first compound 0.0316 µM
# [8] = second compound 0.1 µM, first compound 0.1 µM
# [9] = second compound 0.1 µM, first compound 0.316 µM
# [10] = second compound 0.1 µM, first compound 1 µM
# [11] = second compound 0.1 µM, first compound 3.16 µM
# [12] = second compound 0.1 µM, first compound 10 µM
# [13] = second compound 0.316 µM, first compound 0.0316 µM
# [14] = second compound 0.316 µM, first compound 0.1 µM
# [15] = second compound 0.316 µM, first compound 0.316 µM
# [16] = second compound 0.316 µM, first compound 1 µM
# [17] = second compound 0.316 µM, first compound 3.16 µM
# [18] = second compound 0.316 µM, first compound 10 µM
# [19] = second compound 1 µM, first compound 0.0316 µM
# [20] = second compound 1 µM, first compound 0.1 µM
# [21] = second compound 1 µM, first compound 0.316 µM
# [22] = second compound 1 µM, first compound 1 µM
# [23] = second compound 1 µM, first compound 3.16 µM
# [24] = second compound 1 µM, first compound 10 µM
# [25] = second compound 3.16 µM, first compound 0.0316 µM
# [26] = second compound 3.16 µM, first compound 0.1 µM
# [27] = second compound 3.16 µM, first compound 0.316 µM
# [28] = second compound 3.16 µM, first compound 1 µM
# [29] = second compound 3.16 µM, first compound 3.16 µM
# [30] = second compound 3.16 µM, first compound 10 µM
# [31] = second compound 10 µM, first compound 0.0316 µM
# [32] = second compound 10 µM, first compound 0.1 µM
# [33] = second compound 10 µM, first compound 0.316 µM
# [34] = second compound 10 µM, first compound 1 µM
# [35] = second compound 10 µM, first compound 3.16 µM
# [36] = second compound 10 µM, first compound 10 µM
# 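Note: spheroids exposed to compounds for one week before readout.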
# 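Throughout, for viability, T/C: percent viability relative to vehicle DMSO wells taken as 100%.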
structure (smiles),measurement,setting,value
CCCS(=O)(=O)Nc1ccc(F)c(C(=O)c2c[nH]c3ncc(-c4ccc(Cl)cc4)cc23)c1F + Cc1cnc(CNC(=O)c2c(=O)c3ccc(N4CCCN(C)CC4)nc3n3c2sc2ccccc23)cn1,IC50,second compound 0.0316 µM,5200 nM
same,IC50,second compound 0.1 µM,1720 nM
same,IC50,second compound 0.316 µM,< 31.6 nM
same,IC50,second compound 1 µM,< 31.6 nM
same,IC50,second compound 3.16 µM,< 31.6 nM
same,IC50,second compound 10 µM,< 31.6 nM
same,"viability, T/C",[1],85.1%
same,"viability, T/C",[2],88.8%
same,"viability, T/C",[3],77.6%
same,"viability, T/C",[4],83.8%
same,"viability, T/C",[5],86.5%
same,"viability, T/C",[6],4.81%
same,"viability, T/C",[7],56.2%
same,"viability, T/C",[8],58.5%
same,"viability, T/C",[9],52.4%
same,"viability, T/C",[10],48.9%
same,"viability, T/C",[11],47.5%
same,"viability, T/C",[12],3.42%
same,"viability, T/C",[13],24%
same,"viability, T/C",[14],20.3%
same,"viability, T/C",[15],19.5%
same,"viability, T/C",[16],12.1%
same,"viability, T/C",[17],5.66%
same,"viability, T/C",[18],1.91%
same,"viability, T/C",[19],3.43%
same,"viability, T/C",[20],2.87%
same,"viability, T/C",[21],2.84%
same,"viability, T/C",[22],2.64%
same,"viability, T/C",[23],3.04%
same,"viability, T/C",[24],1.06%
same,"viability, T/C",[25],2.4%
same,"viability, T/C",[26],2.36%
same,"viability, T/C",[27],2.38%
same,"viability, T/C",[28],1.58%
same,"viability, T/C",[29],2.13%
same,"viability, T/C",[30],0.14%
same,"viability, T/C",[31],0.2%
same,"viability, T/C",[32],0.21%
same,"viability, T/C",[33],0.23%
same,"viability, T/C",[34],0.22%
same,"viability, T/C",[35],0.23%
same,"viability, T/C",[36],0.22%
COc1ncnc(C2CC2)c1-c1ncc2cnn(Cc3ccc(-c4nc(C(F)(F)F)cn4C(C)C)cc3)c2n1 + Cc1cnc(CNC(=O)c2c(=O)c3ccc(N4CCCN(C)CC4)nc3n3c2sc2ccccc23)cn1,IC50,second compound 0.0316 µM,> 10000 nM
same,IC50,second compound 0.1 µM,> 10000 nM
same,IC50,second compound 0.316 µM,< 31.6 nM
same,IC50,second compound 1 µM,< 31.6 nM
same,IC50,second compound 3.16 µM,< 31.6 nM
same,IC50,second compound 10 µM,< 31.6 nM
same,"viability, T/C",[1],108%
same,"viability, T/C",[2],80.5%
same,"viability, T/C",[3],85.4%
same,"viability, T/C",[4],81.6%
same,"viability, T/C",[5],85.1%
same,"viability, T/C",[6],86%
same,"viability, T/C",[7],55.2%
same,"viability, T/C",[8],58.1%
same,"viability, T/C",[9],50%
same,"viability, T/C",[10],64.1%
same,"viability, T/C",[11],67.2%
same,"viability, T/C",[12],70%
same,"viability, T/C",[13],19.1%
same,"viability, T/C",[14],19.9%
same,"viability, T/C",[15],17.7%
same,"viability, T/C",[16],22.1%
same,"viability, T/C",[17],23.2%
same,"viability, T/C",[18],18.1%
same,"viability, T/C",[19],3.57%
same,"viability, T/C",[20],3.77%
same,"viability, T/C",[21],3.91%
same,"viability, T/C",[22],3.85%
same,"viability, T/C",[23],4.62%
same,"viability, T/C",[24],7.3%
same,"viability, T/C",[25],2.42%
same,"viability, T/C",[26],2.35%
same,"viability, T/C",[27],2.33%
same,"viability, T/C",[28],2.58%
same,"viability, T/C",[29],3.1%
same,"viability, T/C",[30],2.88%
same,"viability, T/C",[31],0.21%
same,"viability, T/C",[32],0.29%
same,"viability, T/C",[33],0.4%
same,"viability, T/C",[34],0.43%
same,"viability, T/C",[35],0.91%
same,"viability, T/C",[36],0.42%
Cc1cccc(N(C)C(=O)C2C(O)CCN2c2nc(C)cc(C(F)(F)F)c2C#N)c1 (stereo unspecified) + Cc1cnc(CNC(=O)c2c(=O)c3ccc(N4CCCN(C)CC4)nc3n3c2sc2ccccc23)cn1,IC50,second compound 0.0316 µM,> 10000 nM
same,IC50,second compound 0.1 µM,> 10000 nM
same,IC50,second compound 0.316 µM,< 31.6 nM
same,IC50,second compound 1 µM,< 31.6 nM
same,IC50,second compound 3.16 µM,< 31.6 nM
same,IC50,second compound 10 µM,< 31.6 nM
same,"viability, T/C",[1],92%
same,"viability, T/C",[2],88.2%
same,"viability, T/C",[3],94.4%
same,"viability, T/C",[4],82.3%
same,"viability, T/C",[5],95.1%
same,"viability, T/C",[6],77.6%
same,"viability, T/C",[7],70.8%
same,"viability, T/C",[8],73.3%
same,"viability, T/C",[9],62.9%
same,"viability, T/C",[10],58.8%
same,"viability, T/C",[11],74.5%
same,"viability, T/C",[12],64.1%
same,"viability, T/C",[13],24.6%
same,"viability, T/C",[14],29.8%
same,"viability, T/C",[15],27.1%
same,"viability, T/C",[16],23.4%
same,"viability, T/C",[17],24.2%
same,"viability, T/C",[18],22.7%
same,"viability, T/C",[19],4.6%
same,"viability, T/C",[20],7.14%
same,"viability, T/C",[21],5.51%
same,"viability, T/C",[22],4.02%
same,"viability, T/C",[23],4.11%
same,"viability, T/C",[24],3.8%
same,"viability, T/C",[25],2.72%
same,"viability, T/C",[26],2.17%
same,"viability, T/C",[27],1.95%
same,"viability, T/C",[28],2.02%
same,"viability, T/C",[29],2.19%
same,"viability, T/C",[30],1.89%
same,"viability, T/C",[31],2.6%
same,"viability, T/C",[32],2.28%
same,"viability, T/C",[33],2.23%
same,"viability, T/C",[34],1.9%
same,"viability, T/C",[35],1.89%
same,"viability, T/C",[36],0.69%
